Experiment [1] can be described thus: Inhibition of porcine tubulin assembly measured for 30 mins by UV/visible spectrophotometric method. Also on record: species or system Sus scrofa.
The next experiment concerns K562. In words: Cytotoxicity against human K562 cells assessed as growth inhibition after 5 days by MTT assay. To be noted: K562, 120 h. It is filed as functional, cell-based. In general terms: Tetrazolium assays rely on reduction of a dye to a coloured formazan, in cell work by metabolically active cells.
The test system of experiment [2] is DLD-1. The experiment can be described thus: Induction of vascular shutdown in human DLD1 cells xenografted in Balb/C immunodeficient nude mouse at 400 mg/kg, iv by […] dye-based microscopic method. The format is functional, organism-based. To be noted: TDE = time-dependent effect. In general terms: In xenograft studies the graft and the host belong to different species.

For experiment [3], the system named is DLD-1. The experiment can be described thus: Induction of vascular shutdown in human DLD1 cells xenografted in Balb/C immunodeficient nude mouse assessed as vascular element counts at 400 mg/kg, iv at 1 hr post dose by […] dye-based microscopic method (reference value: 3.73 +/- 3.1%). It is filed as functional.
In experiment [4] the test system is DLD-1. In words: Induction of vascular shutdown in human DLD1 cells xenografted in Balb/C immunodeficient nude mouse assessed as vascular element counts at 400 mg/kg, iv at 4 hrs post dose by […] dye-based microscopic method (reference value: 3.73 +/- 3.1%). The format is functional.
For experiment [5], the system named is DLD-1. The experiment can be described thus: Induction of vascular shutdown in human DLD1 cells xenografted in Balb/C immunodeficient nude mouse assessed as vascular element counts at 400 mg/kg, iv at 24 hrs post dose by […] dye-based microscopic method (reference value: 3.73 +/- 3.1%). The format is functional.
Experiment [6] deals with DLD-1. The experiment can be described thus: Vascular disrupting activity in human DLD1 cells xenografted in Balb/C immunodeficient nude mouse assessed as induction of necrosis by measuring necrotic area at 400 mg/kg, iv at 1 hr post dose by haematoxylin and eosin staining-based assay (reference value: 19 +/- 9.6%). It is filed as functional.
For experiment [7], the system named is DLD-1. In words: Vascular disrupting activity in human DLD1 cells xenografted in Balb/C immunodeficient nude mouse assessed as induction of necrosis by measuring necrotic area at 400 mg/kg, iv at 4 hrs post dose by haematoxylin and eosin staining-based assay (reference value: 19 +/- 9.6%). It is filed as functional.
For experiment [8], the system named is DLD-1. In words: Vascular disrupting activity in human DLD1 cells xenografted in Balb/C immunodeficient nude mouse assessed as induction of necrosis by measuring necrotic area at 400 mg/kg, iv at 24 hrs post dose by haematoxylin and eosin staining-based assay (reference value: 19 +/- 9.6%). It is filed as functional.

Broadly, the IC50 is the midpoint of a concentration-inhibition curve. For the compound `COc1cc2c(c(OC)c1OC)-c1ccc(OC)c(=O)cc1[C@@H](NC(C)=O)CC2` [COLCHICINE], in experiment [1], the IC50 is 2 µM.
Regarding `COc1ccc(/C=C\c2cc(OC)c(OC)c(OC)c2)cc1O` [COMBRETASTATIN A4], in the experiment on K562, the IC50 was found to be 1 µM.
For `COc1cc2c(c(OC)c1OC)-c1ccc(N)cc1COC2`, the IC50 is above 10 µM in experiment [1] and 10 µM in the experiment on K562.
With `COc1cc2c(c(OC)c1OC)-c1ccc(OP(=O)([O-])[O-])cc1[C@@H](NC(C)=O)CC2.[Na+].[Na+]`, the Activity entry with DLD-1 [2] is “Tde”; in the experiment with DLD-1 [3], 0.03%; with DLD-1 [4], 0.12%; in the experiment with DLD-1 [5] it was 0.42%; with DLD-1 [6], 23.2%; with DLD-1 [7], 22.3%. The Activity in the experiment with DLD-1 [8] was found to be 91%.
With `COc1ccc2c(c1OS(=O)(=O)C(F)(F)F)COCc1cc(OC)c(OC)c(OC)c1-2`, the IC50 in [1] is 15 µM; with K562 it was 0.25 µM.

The values are drawn from ChEMBL document CHEMBL4002643, “Tubulin-binding dibenz[c,e]oxepines: Part 2. Structural variation and biological evaluation as tumour vasculature disrupting agents” (Bioorg Med Chem, 2017).
